Source: patent US12162878B2 (HINOVA PHARMACEUTICALS INC., priority 2018, dated 2024)

Tested on: CWR22RV1 cells
Test: Inhibition of proliferation of CWR22RV1 cells (CCK-8)
Type: cell-based, human
Settings: Homo sapiens, 6 days
Method: • CWR22RV1 cell line (Cell Bank of Chinese Academy of Sciences, TCHu100) • FBS (Gibco, Cat. No. 10099-141) • 0.01M PBS (Biosharp, Cat. No. 162262) • RIPM1640 (Hyclone, Cat. No. 308090.01) • Penicillin-Streptomycin (Hyclone, Cat. No. SV30010) • Cell counting kit-8 (Signalway Antibody, Cat. No. CP002) • DMSO (Sigma, Cat. No. D5879) • Centrifuge Tube, 15 ml (Excell Bio, Cat. No. CS015-0001) • Cell Culture Dish, (Excell Bio, Cat. No. CS016-0128) • 96-well cell culture cluster (Corning, Cat. No. 3599) • 2. Experimental method (1) Preparation of Buffer
1) CWR22RV1 cells were subcultured in cell culture medium, and the cells in good growth condition were seeded in a 96-well plate, 80 μL for each well, thus the number of cells per well was 1500, then the plate was cultured overnight in a 37° C., 5% CO2 cell incubator.
2) The drug was prepared with dimethyl sulfoxide (DMSO) as a 30 mM stock solution. Prior to use, the solution was diluted 3 times with DMSO, and then diluted with a 3-fold gradient to obtain 9 concentration gradients. Then, each concentration of the compound was further diluted 200 times with the culture solution (to ensure that DMSO concentration in the culture system was 0.1%), 2 repeat wells for each concentration. The diluted solution of each compound (20 μL) was added to the cell culture well (with a final concentration of 10 μM, 3.3 μM, 1.1 μM . . . ), and shaken gently for mixing. In addition, three negative control wells containing only cells and three blank control wells containing only culture medium (20 μL DMSO diluted 200 times with culture medium being added to six wells) were included.
(1) After culturing for 6 days, 10 μL CCK-8 was added to each well and cultured for additional 2.5 h in a 37° C., 5% CO2 cell incubator.
(2) The absorbance (OD value) at 450 nm was measured with a multifunctional microplate reader.
(3) The data was analyzed by the Dose-response-inhibition equation in the software GraphPad Prism6, and the IC50 value was obtained.

Compound	IC50 (CWR22Rv1, 144 h) [nM]	IC50 (144 h) [nM]
[2H]C([2H])([2H])n1cc(-c2cc(NS(C)(=O)=O)ccc2N2CCC3(CC2)COC3)c2cc[nH]c2c1=O [Compound 189, N-(3-(6-trideuteromethyl-7-oxo-6,7-dihydro-1H-pyrrolo[2,3-c]pyridin-4-yl)-4-(2-oxa-7-aza-spiro[3.5]nonan-7-yl)phenyl)methanesulfonamide]	120	–
CC(=O)Nc1ccc(N2CCC3(CC2)COC3)c(-c2cn(C)c(=O)c3[nH]ccc23)c1 [Compound 230]	250	–
Cn1cc(-c2cc(C(N)=O)ccc2N2CCC3(CC2)CC3)c2cc[nH]c2c1=O [Compound 221, 3-(6-methyl-7-oxo-6,7-dihydro-1H-pyrrolo[2,3-c]pyridin-4-yl)-4-(6-aza-spiro[2.5]octan-6-yl)benzeneformamide]	130	–
[2H]C([2H])([2H])n1cc(-c2cc(S(=O)(=O)NCCO)ccc2N2CCC3(CC2)CC3)c2cc[nH]c2c1=O [Compound 205, N-(2-hydroxyethyl)-3-(6-trideuteromethyl-7-oxo-6,7-dihydro-1H-pyrrolo[2,3-c]pyridin-4-yl)-4-(6-aza-spiro[2.5]octan-6-yl)benzenesulfonamide]	4.8	–
Cn1cc(-c2cc(NS(C)(=O)=O)ccc2N2CC3(CCC3)C2)c2cc[nH]c2c1=O [Compound 11, N-(3-(6-methyl-7-oxo-6,7-dihydro-1H-pyrrolo[2,3-c]pyridin-4-yl)-4-(2-aza-spiro[3.3]heptan-2-yl)phenyl)methanesulfonamide]	30	–
[2H]C([2H])([2H])n1cc(-c2cc(S(C)(=O)=O)ccc2N2CCC3(CC2)COC3)c2cc[nH]c2c1=O [Compound 183, 6-trideuteromethyl-4-(5-(methylsulfonyl)-2-(2-oxa-7-aza-spiro [3.5]nonan-7-yl)phenyl)-1H-pyrrolo[2,3-c]pyridin-7(6H)-one]	63	–
Cn1cc(-c2cc(NS(=O)(=O)C3CC3)ccc2N2CC3(COC3)C2)c2cc[nH]c2c1=O [Compound 18, N-(3-(6-methyl-7-oxo-6,7-dihydro-1H-pyrrolo[2,3-c]pyridin-4-yl)-4-(2-oxa-6-aza-spiro[3.3]heptan-6-yl)phenyl)cyclopropanesulfonamide]	520	–
[2H]C([2H])([2H])n1cc(-c2cc(S(=O)(=O)CC)ccc2N2CCC3(CC2)CC3)c2cc[nH]c2c1=O [Compound 232, 4-(5-(ethylsulfonyl)-2-(6-aza-spiro[2.5]octan-6-yl)phenyl)-6-trideuteromethyl-1H-pyrrolo[2,3-c]pyridin-7(6H)-one]	0.6	–
CCCCS(=O)(=O)Nc1ccc(N2CCC3(CC2)CC3)c(-c2cn(C)c(=O)c3[nH]ccc23)c1 [Compound 70, N-(3-(6-methyl-7-oxo-6,7-dihydro-1H-pyrrolo[2,3-c]pyridin-4-yl)-4-(6-aza-spiro[2.5]octan-6-yl)phenyl)butyl-1-sulfonamide]	130	–
[2H]C([2H])([2H])n1cc(-c2cc(NS(=O)(=O)CCCC)ccc2N2CC3(COC3)C2)c2cc[nH]c2c1=O [Compound 50, N-(3-(6-trideuteromethyl-7-oxo-6,7-dihydro-1H-pyrrolo[2,3-c]pyridin-4-yl)-4-(2-oxa-6-aza-spiro[3.3]heptan-6-yl)phenyl) butane-1-sulfonamide]	510	–
[2H]C([2H])([2H])n1cc(-c2cc(NS(=O)(=O)CC)ccc2N2CC3(CCC3)C2)c2cc[nH]c2c1=O [Compound 47, N-(3-(6-trideuteromethyl-7-oxo-6,7-dihydro-1H-pyrrolo[2,3-c]pyridin-4-yl)-4-(2-aza-spiro[3.3]heptan-2-yl)phenyl)ethanesulfonamide]	50	–
[2H]C([2H])([2H])n1cc(-c2cc(S(C)(=O)=O)ccc2N2CC3(CCC3)C2)c2cc[nH]c2c1=O [Compound 60, 6-trideuteromethyl-4-(5-(methylsulfonyl)-2-(2-aza-spiro[3.3]heptan-2-yl)phenyl)-1H-pyrrolo[2,3-c]pyridin-7(6H)-one]	39	–
[2H]C([2H])([2H])n1cc(-c2cc(S(C)(=O)=O)ccc2N2CCC3(CC3)C2)c2cc[nH]c2c1=O [Compound 54, 6-trideuteromethyl-4-(5(methylsulfonyl)-2-(5-aza-spiro[2.4]heptan-5-yl)phenyl)-1H-pyrrolo[2,3-c]pyridin-7(6H)-one]	18	–
CCCCS(=O)(=O)Nc1ccc(N2CC3(COC3)C2)c(-c2cn(C)c(=O)c3[nH]ccc23)c1 [Compound 17, N-(3-(6-methyl-7-oxo-6,7-dihydro-1H-pyrrolo[2,3-c]pyridin-4-yl)-4-(2-oxa-6-aza-spiro[3.3]heptan-6-yl)phenyl)butan-1-sulfonamide]	440	–
[2H]C([2H])([2H])n1cc(-c2cc(NS(=O)(=O)CC)ccc2N2CCCC3(CC3)C2)c2cc[nH]c2c1=O [Compound 42, N-(3-(6-trideuteromethyl-7-oxo-6,7-dihydro-1H-pyrrolo[2,3-c]pyridin-4-yl)-4-(5-aza-spiro[2.5]octan-5-yl)phenyl)ethylsulfonamide]	30	–
CCS(=O)(=O)Nc1ccc(N2CCC3(CC2)CC3)c(-c2cn(C)c(=O)c3[nH]ccc23)c1 [Compound 8]	6	–
Cn1cc(-c2cc(S(C)(=O)=O)ccc2N2CCC3(CC2)CC3C(N)=O)c2cc[nH]c2c1=O (stereo not shown) [Compound 180, 6-(2-(6-methyl-7-oxo-6,7-dihydro-1H-pyrrolo[2,3-c]pyridin-4-yl)-4-(methylsulfonyl)phenyl)-6-aza-spiro[2.5]octan-1-formamide]	460	–
Cn1cc(-c2cc(S(=O)(=O)C3CC3)ccc2N2CCCC3(CC3)C2)c2cc[nH]c2c1=O [Compound 28, 4-(5-(cyclopropylsulfonyl)-2-(5-aza-spiro[2.5]octan-5-yl)phenyl)-6-methyl-1H-pyrrolo[2,3-c]pyridin-7(6H)-one]	36	–
[2H]C([2H])([2H])n1cc(-c2cc(S(=O)(=O)C(C)C)cnc2N2CCC3(CC2)CC3)c2cc[nH]c2c1=O [Compound 188, 4-(5-(isopropylsulfonyl)-2-(6-aza-spiro[2.5]octan-6-yl)pyridin-3-yl)-6-trideuteromethyl-1H-pyrrolo[2,3-c]pyridin-7(6H)-one]	38	–
Cn1cc(-c2cc(NS(C)(=O)=O)ccc2N2CC3CC2CO3)c2cc[nH]c2c1=O (stereo not shown) [Compound 192, N-(4-(2-oxa-5-azabicyclo[2.2.1]heptan-5-yl)-3-(6-methyl-7-oxo-6,7-dihydro-1H-pyrrolo[2,3-c]pyridin-4-yl)phenyl)methanesulfonamide]	310	–
[2H]C([2H])([2H])n1cc(-c2cc(S(=O)(=O)C3CC3)ccc2N2CCCC3(CC3)C2)c2cc[nH]c2c1=O [Compound 58, 4-(5-(cyclopropylsulfonyl)-2-(5-aza-spiro[2.5]octan-5-yl)phenyl)-6-trideuteromethyl-1H-pyrrolo[2,3-c]pyridin-7(6H)-one]	50	–
Cn1cc(-c2cc(S(C)(=O)=O)ccc2N2CCC3(CC2)CC3C#N)c2cc[nH]c2c1=O (stereo not shown) [Compound 181, 6-(2-(6-methyl-7-oxo-6,7-dihydro-1H-pyrrolo[2,3-c]pyridin-4-yl)-4-(methylsulfonyl)phenyl)-6-aza-spiro[2.5]octan-1-cyanide]	–	90
CCOC(=O)C1CC12CCN(c1ccc(NS(=O)(=O)CC)cc1-c1cn(C)c(=O)c3[nH]ccc13)CC2 (stereo not shown) [Compound 19]	410	–
Cn1cc(-c2cc(S(C)(=O)=O)ccc2N2CCC3(CC2)CC3)c2cc[nH]c2c1=O [Compound 26, 6-methyl-4-(5(methylsulfonyl)-2-(6-aza-spiro[2.5]octan-6-yl)phenyl)-1H-pyrrolo[2,3-c]pyridin-7(6H)-one]	6	–
[2H]C([2H])([2H])n1cc(-c2cc(S(N)(=O)=O)cnc2N2CCC3(CC2)CC3)c2cc[nH]c2c1=O [Compound 199, 5-(6-trideuteromethyl-7-oxo-6,7-dihydro-1H-pyrrolo[2,3-c]pyridin-4-yl)-6-(6-aza-spiro[2.5]octan-6-yl)pyridin-3-sulfonamide]	2	–
Cn1cc(-c2cc(NS(C)(=O)=O)ccc2N2CC3(COC3)C2)c2cc[nH]c2c1=O [Compound 15, N-(3-(6-methyl-7-oxo-6,7-dihydro-1H-pyrrolo[2,3-c]pyridin-4-yl)-4-(2-oxa-6-aza-spiro[3.3]heptan-6-yl)phenyl)methanesulfonamide]	650	–
CCS(=O)(=O)c1ccc(N2CC3(CCC3)C2)c(-c2cn(C)c(=O)c3[nH]ccc23)c1 [Compound 33, 4-(5-(ethylsulfonyl)-2-(2-aza-spiro[3.3]heptan-2-yl)phenyl)-6-methyl-1H-pyrrolo[2,3-c]pyridin-7(6H)-one]	45	–
[2H]C([2H])([2H])n1cc(-c2cc(NS(=O)(=O)C3CC3)ccc2N2CC3(CCC3)C2)c2cc[nH]c2c1=O [Compound 43, N-(3-(6-trideuteromethyl-7-oxo-6,7-dihydro-1H-pyrrolo[2,3-c]pyridin-4-yl)-4-(2-aza-spiro[3.3]heptan-2-yl)phenyl)cyclopropanesulfonamide]	50	–
